Data reported in patent publication US20210046071A1, “TETRACYCLIC COMPOUNDS AND THEIR SALTS, COMPOSITIONS, AND METHODS FOR THEIR USE” (Senhwa Biosciences, Inc., priority 2019, published 2021).
pEC50: −log10 of the molar value.

Key:
[1] = test system: MDA-MB-231; test: Alamar Blue cell viability assay, MDA-MB-231; format: cell-based; conditions: Homo sapiens; MDA-MB-231, Breast
Description: (§1) The effect of Compound I on cell viability was assessed by Alamar Blue assay of metabolic activity in various cancer cell lines.

[2] = test system: SEM cells; test: Alamar Blue cell viability assay, SEM; format: cell-based; conditions: Leukemia
Description: as §1

[3] = test system: NK92mi; test: Alamar Blue cell viability assay, NK92mi; format: cell-based; conditions: Lymphoma
Description: as §1

[4] = test system: solid malignancy; test: Dose escalation study in patients, best response / tumor shrinkage; format: in vivo, human
Description: Pharmacokinetic studies and dose escalation studies were conducted in adult patients with metastatic, recurrent, locally, advanced, or unresectable solid malignancy (patients with histologically and/or cytologically confirmed solid malignancy), who received prior anti-cancer treatment(s) until disease progression, at 10 different dose levels of Compound I. Groups 1-7 were administered intravenously on days 1 and 8 of a 4-week cycle at 50, 100, 150, 200, 250, 325, and 475 mg/m^2 (lyophilized formulation), respectively. Groups 8-10 were administered intravenously on days 1,8, and 15 of a 4-week cycle at 325, 475, and 650 mg/m^2 (lyophilized formulation), respectively. Each patient received each dose over 1 hour by IV infusion on days described above.
The duration on therapy at each dose level for evaluable patients is depicted in FIG. 8.
In the study described in Example 3, 18 patients were diagnosed with metastatic breast cancer. […] This study was conducted to evaluate predictive biomarkers of response to Compound I and to explore the relationship between germline HRD aberrations and outcomes of Compound I treatments.
In the study described in Example 3, 12 patients harbored BRCA1 or BRCA2 mutation. From the same group of 12 patients harboring BRCA1 or BRCA2 mutation, 8 patients had breast cancer (FIG. 5). Of the 8 patients, 6 patient harbored BRCA2 mutation and had breast cancer (FIG. 6). In FIGS. 4-6, each bar represents an individual in a treatment Group as indicated by the Group number corresponding to the treatment Groups in Example 3.

[5] = test system: CCD-1094Sk; test: Alamar Blue cell viability assay, CCD-1094Sk; format: cell-based; conditions: Normal
Description: as §1

[6] = test system: MV 4; 11; test: Alamar Blue cell viability assay, MV 4; 11; format: cell-based; conditions: Homo sapiens, MV4-11, 11, Leukemia
Description: as §1

[7] = test system: A375; test: Alamar Blue cell viability assay, A375; format: cell-based; conditions: Homo sapiens, A-375; A375, Melanoma
Description: as §1

[8] = test system: NCI-H1299; test: Alamar Blue cell viability assay, NCI-H1299; format: cell-based; conditions: Homo sapiens; NCI-H1299, Lung
Description: as §1

[9] = test system: LNCaP; test: Alamar Blue cell viability assay, LNCaP; format: cell-based; conditions: Homo sapiens, Prostate
Description: as §1

[10] = test system: SK-OV-3; test: Alamar Blue cell viability assay, SK-OV-3; format: cell-based; conditions: Homo sapiens; SK-OV-3, Ovarian
Description: as §1

[11] = test system: BRCA2 knockout tumor cells; test: BRCA2 knockout tumor xenograft model; format: in vivo; conditions: compared with isogenic wild type control cells
[12] = test system: MDA-MB-361; test: Alamar Blue cell viability assay, MDA-MB-361; format: cell-based; conditions: Homo sapiens; MDA-MB-361, Breast
Description: as §1

[13] = test system: MIA PaCa-2; test: Alamar Blue cell viability assay, MIA PaCa-2; format: cell-based; conditions: Homo sapiens; MIA PaCa-2, Pancreatic
Description: as §1

[14] = test system: EOL-1; test: Alamar Blue cell viability assay, EOL-1; format: cell-based; conditions: Homo sapiens, EOL1; EOL-1, Leukemia
Description: as §1

[15] = test system: multiple cancer cell lines; test: Alamar Blue cell viability assay, multiple cancer cell lines; format: cell-based; conditions: Table 1
Description: as §1

[16] = test system: COLO-205; test: Alamar Blue cell viability assay, COLO-205; format: cell-based; conditions: Homo sapiens; COLO-205, Colon
Description: as §1

[17] = test system: NCI-H520; test: Alamar Blue cell viability assay, NCI-H520; format: cell-based; conditions: Homo sapiens; NCI-H520, Lung
Description: as §1

[18] = test system: MDA-MB-453; test: Alamar Blue cell viability assay, MDA-MB-453; format: cell-based; conditions: Homo sapiens; MDA-MB-453, Breast
Description: as §1

[19] = test system: Jurkat; test: Alamar Blue cell viability assay, Jurkat; format: cell-based; conditions: Homo sapiens, Leukemia
Description: as §1

[20] = test system: A7; test: Alamar Blue cell viability assay, A7; format: cell-based; conditions: A7, Melanoma
Description: as §1

[21] = test system: Ramos; test: Alamar Blue cell viability assay, Ramos; format: cell-based; conditions: Homo sapiens, Lymphoma
Description: as §1

[22] = test system: CCD-1068Sk; test: Alamar Blue cell viability assay, CCD-1068Sk; format: cell-based; conditions: Normal
Description: as §1

[23] = test system: SR; test: Alamar Blue cell viability assay, SR; format: cell-based; conditions: Homo sapiens, Leukemia
Description: as §1

[24] = of the 40 patients treated, 34 discontinued

Cc1cnc(CNC(=O)c2c(=O)c3ccc(N4CCCN(C)CC4)nc3n3c2sc2ccccc23)cn1 [Compound I, 2-(4-Methyl-[1,4]diazepan-1-yl)-5-oxo-5H-7-thia-1,11b-diaza-benzo[c]fluorene-6-carboxylic acid (5-methyl-pyrazin-2-ylmethyl)-amide]
pEC50 [1]: 7.08
pEC50 [2]: 7.74
pEC50 [3]: 6.78
Response of a patient who harbored a PALB2 mutation ([4]; Group 10, 650 mg/m^2, CT scans, 6-month follow-up): partial response (PR)
Patients discontinued due to objective progressive disease [4, 24]: 29
Patients discontinued due to symptomatic progression of disease [4, 24]: 4
Patients with stable disease as best response for >4 cycles ([4]; of the 40 patients treated, 2 with breast cancer, 4 germline BRCA2, 2 somatic BRCA1/2): 6 patients
Patients with confirmed partial response as best response ([4]; of the 40 patients treated, 3 with breast cancer, 2 germline BRCA2, 1 germline BRCA2 VUS, germline PALB2): 4 patients
Outcome in 8 patients who had received prior PARP inhibitor therapy ([4]; only 2 of them had BRCA2 mutations): all had early progression after ≤2 cycles
Dose at which patients with BRCA2 mutation responded, tumor shrinkage observed ([4]; patients with BRCA2 mutation): greater than or equal to 150 mg/m^2
pEC50 [5]: 5.32
pEC50 [6]: 7.92
pEC50 [7]: 7.24
pEC50 [8]: 7.26
pEC50 [9]: 5.26
pEC50 [10]: 7.11
Activity in BRCA2 knockout tumor cells in a xenograft model [11]: wide therapeutic index of activity
pEC50 [12]: 5.68
pEC50 [13]: 7.13
pEC50 [14]: 8.52
Antiproliferative activity [15]: broad spectrum antiproliferative activity
pEC50 [16]: 7.02
pEC50 [17]: 7.15
pEC50 [18]: 6.85
pEC50 [19]: 7.19
pEC50 [20]: 7.64
pEC50 [21]: 7.18
pEC50 [22]: 5.29
pEC50 [23]: 8.30
